Activity calls are given as the source filed them. The rule behind the calls is not given here.

This assay concerns Leishmania donovani growth inhibition. Description: antileishmanial activity against L. donovani parasites (AID 1159560).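 Note: parasites exposed to compound for 72 h before the viability read.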
Consider `O=c1[nH]cnc2c([C@@H]3O[C@H](CO)[C@@H](O)[C@H]3O)[nH]nc12`, for which the half-maximal inhibitory concentration (IC50) was 0.4 µM. Turning to `CN(C)S(=O)(=O)c1cccc(CSc2nnc(-c3ccc4c(c3)OCO4)o2)c1`, the IC50 was 1 µM. Turning to `Cc1nc(C(=O)Nc2ccc3c(c2)OCO3)nn1-c1ccc(F)cc1`, the IC50 was 2 µM. `O=C(CN1CCC2(O)CCCCC2C1c1ccc2c(c1)OCO2)Nc1ccc(Cl)cc1Cl` (centres undefined): the IC50 is 5 µM. On to `CN(C)CCN(C)Cc1ccc(F)cc1NS(=O)(=O)c1ccc(Cl)c(Cl)c1`, for which the IC50 is 7.9 µM. For the molecule `C[C@@H](Oc1cc(-n2cnc3ccc(CC(O)CO)cc32)sc1C(N)=O)c1ccccc1Cl` (some centres undefined), the IC50 is 25 µM. As for `CS(=O)(=O)c1cccc(CNC(=O)c2cncc(N3CCN(c4ccc(F)cc4)CC3)c2)c1`, the IC50 was > 50 µM (inactive). For `O=C(Cn1cnc([N+](=O)[O-])n1)Nc1ccc(Cl)cc1C(=O)c1ccccc1` the value was > 50 µM (inactive); for `Cn1nccc1NC(=O)Cn1ccc(-c2ccncc2)n1`, > 50 µM (inactive); for `CNc1cncc(C2CCCN2C(=O)Cc2ccc3ccccc3c2)n1` (centres undefined), > 50 µM (inactive).

As to `Cc1ccc(-c2csc(NC(=O)C=Cc3ccc(S(=O)(=O)N4CCOCC4)cc3)n2)o1`, the half-inhibitory concentration (IC50) is 6.3 µM. Take `Cc1ccc(Nc2nc(-c3ccccn3)cc(N3CCCC(O)C3)n2)cc1` (centres undefined): the IC50 is 2 µM. With `COc1cccc2sc(CN(C)C(=O)C3CNCCN3c3ccc(F)cc3)c(C)c12` (centres undefined), the IC50 was 32 µM.

For the molecule `COc1ccc2ncc(=O)n(CCN3CC[C@H](NCc4ncc(Cl)c5[nH]ncc45)[C@H](O)C3)c2n1`, the IC50 is > 50 µM (inactive). For `Cc1ccc(S(C)(=O)=O)cc1Nc1nccc(-c2sc(N)nc2-c2ccccc2)n1`, the IC50 was 3.2 µM.

For `COc1ccc(Cc2nc(-c3ncc4cccnc4c3O)n[nH]2)cc1OC`, the half-inhibitory concentration (IC50) was 0.32 µM. In the case of `CC(C)N(C(=O)CN1C(=O)C(N)C(=O)N(c2ccccc2)c2ccccc21)c1ccccc1` (centres undefined), the IC50 is > 50 µM (inactive). In the case of `Cc1ccccc1CNC(=O)CN(Cc1ccccn1)Cc1ccccn1`, the half-inhibitory concentration (IC50) is 10 µM. For the molecule `O=C(CN(Cc1ccccn1)Cc1ccccn1)NCc1ccc2c(c1)OCO2`, the IC50 is 13 µM.

For the molecule `CC(C)c1nn(-c2nc(N)nc(-c3ccccn3)n2)c(N)c1C1CCCCC1`, the 50% inhibitory concentration (IC50) was 7.9 µM. Take `COc1ccc(CN2C(=O)C(O)(CC(=O)c3ccncc3)c3cc(Br)ccc32)cc1OC` (centres undefined): the concentration for half-maximal inhibition (IC50) was 40 µM. As for `O=C(NCc1nnc2n1CCCCC2)c1ccc(-c2ccc(F)cc2)o1`, the IC50 is > 50 µM (inactive).

`O=C(NCCc1csc(-c2cccc(F)c2)n1)c1ccco1`: the IC50 is > 50 µM (inactive). Regarding `Cc1cc(Br)sc1CNCCCNc1cc(=O)c2ccccc2[nH]1`, the IC50 was > 50 µM (inactive).

With `N#Cc1cccc(CNc2ccc(-c3cnn(CC4CC4)c(=O)c3C#N)cc2)c1`, the IC50 is 25 µM.

In the case of `O=C(Nc1ccc(C(F)(F)F)cc1)Nc1cccc([N+](=O)[O-])c1`, the IC50 was 7.9 µM. Turning to `O=C(Nc1ccccc1C(=O)Nc1ccccn1)c1ccco1`, the IC50 was > 50 µM (inactive). Regarding `COc1ccc2c(Cl)c(C(=O)N3CCC3)sc2c1Cl`, the IC50 is > 50 µM (inactive). With `CN(Cc1ccc(F)cc1)c1ccc(OCC(=O)N2CCCCC2c2cccnc2)nn1` (centres undefined), the half-maximal inhibitory concentration (IC50) was 16 µM. In the case of `O=C(CCCNC(=O)c1ccc(Cl)cc1)Nc1nc(-c2ccccn2)cs1`, the IC50 is > 50 µM (inactive). Take `COc1ccc(-c2cnc(C)o2)cc1S(=O)(=O)Nc1ccc(C)cc1C`: the 50% inhibitory concentration (IC50) is 4 µM. As to `O=C(CN1CCN(S(=O)(=O)c2cccc([N+](=O)[O-])c2)CC1)Nc1ccc(Oc2ccccc2)cc1`, the IC50 was 4 µM. Turning to `CC(=O)NC1(c2ccccc2)CCN(CC(=O)Nc2ccccc2-c2ccccc2)CC1`, the half-maximal inhibitory concentration (IC50) was 20 µM. The same measure for `NS(=O)(=O)c1ccc(Nc2nccc(-c3cnn4ncccc34)n2)cc1`: 0.79 µM. As for `O=[N+]([O-])c1ccc(-c2nnn(-c3ccc(Cl)cc3)n2)o1`, the half-maximal inhibitory concentration (IC50) is 6.3 µM. For `O=C1CN(C(=O)c2cccc(Nc3ncc(-c4ccc5c(c4)OCO5)cn3)c2)CCN1`, the half-maximal inhibitory concentration (IC50) was 1.6 µM. With `CNc1nc(C)nc(N2CCc3cc(C(=O)NCc4ccc(-c5nccn5C)cc4Cl)ccc32)n1`, the IC50 is 5 µM.

As to `O=C(CCCn1cnc([N+](=O)[O-])n1)Nc1cccc(Cl)c1`, the IC50 was > 50 µM (inactive).

`COc1cc(OC)cc(C(NS(=O)(=O)c2ccc(Cl)c(C(F)(F)F)c2)c2nccn2C)c1` (centres undefined): the IC50 was 10 µM. Take `NCC(Cc1ccccc1)NC(=O)c1cnc(-c2c[nH]c3ncccc23)s1` (centres undefined): the IC50 was > 50 µM (inactive). On to `CCOc1ccc(CC(=O)N2c3ccccc3CC2C(=O)NC)cc1` (centres undefined), for which the IC50 is > 50 µM (inactive). With `CS(=O)(=O)NC1CCC(Oc2cc3cnccc3cc2-c2ccsc2)CC1` (centres undefined), the IC50 was 32 µM. `CN(C)CCN(C)Cc1ccc(Cl)cc1NS(=O)(=O)c1ccc(Cl)c(Cl)c1`: the IC50 was 5 µM.

As to `N#Cc1ccc(S(=O)(=O)N2CCN(Cc3cccc(-c4ccncc4)c3)CC2)cc1`, the IC50 was > 50 µM (inactive).

As for `CS(=O)(=O)NC1CCC(Nc2ncc(Br)c(Nc3ccccc3C(N)=O)n2)CC1` (centres undefined), the IC50 was 1 µM. With `Cc1cc(-c2cccc3ccccc23)nc2nc(N)nc(N)c12`, the half-inhibitory concentration (IC50) was 2 µM. Take `CN(Cc1cccnc1)Cc1ccc(N2CCN(C(=O)C3(c4ccc(Cl)cc4)CC3)CC2)nc1`: the IC50 was 32 µM. Regarding `Cc1[nH]c2ccccc2c(=O)c1Cc1c(C)[nH]c2ccccc2c1=O`, the IC50 is 20 µM. Consider `O=[N+]([O-])c1ccc(C2=CC(c3ccccc3)=NCCN2)cc1`, for which the IC50 is > 50 µM (inactive). Turning to `O=C1CN(C2CCCc3c(OCc4ccncc4)cccc32)C(=O)N1C1CCCCC1` (centres undefined), the IC50 is > 50 µM (inactive). Take `CN(Cc1nc2ccc(C(=O)NCC3CCCCC3)cc2[nH]1)C1CCCc2cccnc21` (centres undefined): the 50% inhibitory concentration (IC50) is 3.2 µM. Consider `O=c1[nH]c(NCCCNCc2cc(Br)cc(Br)c2)nc2ccsc12`, for which the IC50 was 16 µM. Take `CCCNC(=O)Nc1cccc(-c2nc3ncccc3o2)c1`: the half-maximal inhibitory concentration (IC50) was 3.2 µM.

Take `COCCn1cnc2cc(NC(=O)C3CCCCC3)cc(C(=O)N3CCc4sccc4C3)c21`: the IC50 is > 50 µM (inactive). The same measure for `COc1ccc(NS(=O)(=O)c2cc(NC(=O)Cc3ccc(C)cc3)ccc2N2CCOCC2)cc1`: 40 µM.

On to `CN(CC1CCCO1)S(=O)(=O)c1ccc(C(=O)Nc2nc(-c3ccccn3)cs2)cc1` (centres undefined), for which the half-inhibitory concentration (IC50) was 1.3 µM. Consider `CCCn1c(NC(=O)Cc2ccc(Cl)cc2)nc2ccccc21`, for which the IC50 was 40 µM. Turning to `O=S1N=C(NCCCN(Cc2ccc(F)cc2)c2ccccn2)C(NCc2ccncc2)=N1` (centres undefined), the IC50 is > 50 µM (inactive). On to `CC(=O)Nc1ccc(-c2noc(CC3CCCN(Cc4cccc(F)c4C)C3)n2)cc1` (centres undefined), for which the IC50 was 40 µM.

Take `COc1ccc(C2C3CCCCC3(O)CCN2CC(=O)Nc2ccc(Cl)cc2Cl)cc1` (centres undefined): the concentration for half-maximal inhibition (IC50) was 1.6 µM.

In the case of `Cc1cc(C)nc(N2CCC(N(Cc3cccnc3)C(=O)c3cccc(C#N)c3)CC2)n1`, the IC50 is 5 µM.

`CC(Cn1ccnc1)NC(=O)C1CC1c1cccc(Cl)c1Cl` (centres undefined): the IC50 is 16 µM. As to `Cc1cccnc1NC(=O)c1cccc(OCc2c(C)noc2C)c1`, the IC50 is > 50 µM (inactive).

For the molecule `Cc1[nH]n2c(=O)c3c(nc2c1-c1ccc(Br)cc1)CCCC3`, the IC50 is 10 µM.

In general, IC50 refers to the midpoint of a concentration-inhibition curve.

(Values after PubChem BioAssay AID1159560 (GlaxoSmithKline (GSK), 2015).)
